Experimental data: patent publication US12122761B2, “2-azaspiro[3.4]octane derivatives as M4 agonists” (NOVARTIS AG, priority 2019, dated 2024)

Experiments:
[1] = molecular target: T1, human cloned CHRM4 receptor (M4_CHO cells) (Homo sapiens, UniProt P08173); test: CHRM4 Ca++ Flux Assay (agonist mode, FDSS 7000EX); format: cell-based; conditions: for Emax: Percent Activity, read-out: M4 FDSS PA; for EC50: geometric mean if tested more than once, read-out: M4 FDSS EC50
T1 construct: expressed in transfected cells; host or cells: CHO-K1
T1 sequence (P08173 1-479): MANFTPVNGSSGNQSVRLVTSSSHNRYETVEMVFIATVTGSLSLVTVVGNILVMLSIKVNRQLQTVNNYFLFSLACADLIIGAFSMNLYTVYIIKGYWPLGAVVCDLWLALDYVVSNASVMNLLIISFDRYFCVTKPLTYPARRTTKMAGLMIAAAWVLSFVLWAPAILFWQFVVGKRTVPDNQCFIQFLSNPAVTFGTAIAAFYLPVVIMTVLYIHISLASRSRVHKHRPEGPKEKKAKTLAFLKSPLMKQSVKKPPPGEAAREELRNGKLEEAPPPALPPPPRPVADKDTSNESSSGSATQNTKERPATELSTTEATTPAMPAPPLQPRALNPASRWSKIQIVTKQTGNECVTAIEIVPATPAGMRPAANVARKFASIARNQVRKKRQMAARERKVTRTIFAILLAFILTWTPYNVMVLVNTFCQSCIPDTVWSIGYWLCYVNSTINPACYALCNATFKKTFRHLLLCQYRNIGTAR
In short: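 M4_CHO cells loaded with a Ca++ dye for at least 1 h were held 60 min at room temperature in HEPES/probenecid buffer with 20 μM ATP. Ca++ flux after an 11-point compound dose, in triplicate and agonist mode, was recorded over 3 min. Four-parameter fits gave curves, with activity expressed relative to the Carbachol EC100.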

[2] = molecular target: T2, Cloned human M1 receptor (CHRM1) stably expressed in HEK293 cells (Homo sapiens, UniProt P11229); test: CHRM1 Ca++ Flux Assay (agonist mode, FDSS 7000EX); format: cell-based; conditions: for Emax: HEK293, Percent Activity, read-out: M1 FDSS PA; for EC50: geometric mean if tested more than once
T2 construct: expressed in transfected cells; host or cells: HEK293
T2 sequence (P11229 1-460): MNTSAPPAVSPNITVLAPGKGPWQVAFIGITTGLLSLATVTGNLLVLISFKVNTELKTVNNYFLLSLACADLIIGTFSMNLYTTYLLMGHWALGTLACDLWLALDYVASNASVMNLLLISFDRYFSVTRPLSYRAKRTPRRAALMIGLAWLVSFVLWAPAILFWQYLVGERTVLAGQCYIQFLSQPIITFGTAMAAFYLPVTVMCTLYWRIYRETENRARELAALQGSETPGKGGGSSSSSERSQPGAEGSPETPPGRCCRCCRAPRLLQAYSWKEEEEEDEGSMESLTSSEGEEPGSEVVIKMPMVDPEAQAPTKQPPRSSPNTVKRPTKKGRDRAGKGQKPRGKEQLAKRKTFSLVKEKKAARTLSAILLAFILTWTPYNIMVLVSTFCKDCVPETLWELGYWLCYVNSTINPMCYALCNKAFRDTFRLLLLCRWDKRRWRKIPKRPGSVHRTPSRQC
In short: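 Compounds tested as agonists at 11 concentrations in triplicate, with calcium traces captured over 3 minutes. Cells were HEK293 with stable human CHRM1 expression, plated overnight at 25K/well and loaded with calcium dye. Responses normalized to carbachol EC100 and fitted by four-parameter nonlinear regression.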

Compound | Emax [1] | EC50 [1] | Emax [2] | EC50 [2]
COc1ccccc1C1CCN([C@@H]2CCC3(C2)CN(c2nccnc2C(F)(F)F)C3)CC1 [Example 5I, (R)-6-(4-(2-methoxyphenyl)piperidin-1-yl)-2-(3-(trifluoromethyl)pyrazin-2-yl)-2-azaspiro[3.4]octane] | 16% | 84 nM | 55% | 272 nM
COc1ccccc1C1CCN([C@@H]2CCC3(C2)CN(c2nccnc2C)C3)CC1 [Example 5J, (R)-6-(4-(2-methoxyphenyl)piperidin-1-yl)-2-(3-methylpyrazin-2-yl)-2-azaspiro[3.4]octane] | 60% | 9 nM | 60% | 100 nM
COc1ccccc1C1CCN([C@@H]2CCC3(C2)CN(c2cccnc2)C3)CC1 [Example 5K, (R)-6-(4-(2-methoxyphenyl)piperidin-1-yl)-2-(pyridin-3-yl)-2-azaspiro[3.4]octane] | 64% | 9 nM | 54% | 284 nM
Cc1ccc(N2CC3(CC[C@@H](N4CCC(c5ccccc5O[C@@H]5CCOC5)CC4)C3)C2)cn1 [Example 5L, (R)-2-(6-methylpyridin-3-yl)-6-(4-(2-(((R)-tetrahydrofuran-3-yl)oxy)phenyl)piperidin-1-yl)-2-azaspiro[3.4]octane] | 61% | 29 nM | 0% | > 25000 nM
COc1ccccc1C1CCN([C@@H]2CCC3(C2)CN(c2ncnc(C)n2)C3)CC1 [Example 5M, (R)-6-(4-(2-methoxyphenyl)piperidin-1-yl)-2-(4-methyl-1,3,5-triazin-2-yl)-2-azaspiro[3.4]octane] | 43% | 51 nM | 0% | > 25000 nM
COc1ccccc1C1CCN([C@@H]2CCC3(C2)CN(c2ccc(Cl)nn2)C3)CC1 [Example 5N, (R)-2-(6-chloropyridazin-3-yl)-6-(4-(2-methoxyphenyl)piperidin-1-yl)-2-azaspiro[3.4]octane] | 50% | 26 nM | 0% | > 25000 nM
COc1ccccc1C1CCN([C@@H]2CCC3(C2)CN(c2cccnn2)C3)CC1 [Example 5O, (R)-6-(4-(2-methoxyphenyl)piperidin-1-yl)-2-(pyridazin-3-yl)-2-azaspiro[3.4]octane] | 39% | 55 nM | 27% | 1340 nM
COc1ccc(Cl)cc1C1CCN([C@@H]2CCC3(C2)CN(c2ccnnc2)C3)CC1 [Example 5P, (R)-6-(4-(5-chloro-2-methoxyphenyl)piperidin-1-yl)-2-(pyridazin-4-yl)-2-azaspiro[3.4]octane] | 55% | 43 nM | 60% | 196 nM
c1ccc(C2CCN([C@@H]3CCC4(C3)CN(c3ncncn3)C4)CC2)c(OCC2CCOCC2)c1 [Example 5Q, (R)-6-(4-(2-((tetrahydro-2H-pyran-4-yl)methoxy)phenyl)piperidin-1-yl)-2-(1,3,5-triazin-2-yl)-2-azaspiro[3.4]octane] | 54% | 21 nM | 0% | > 25000 nM
COc1ccccc1C1CCN([C@@H]2CCC3(C2)CN(c2cc(Cl)nnc2Cl)C3)CC1 [Example 5R, (R)-2-(3,6-dichloropyridazin-4-yl)-6-(4-(2-methoxyphenyl)piperidin-1-yl)-2-azaspiro[3.4]octane] | 51% | 131 nM | 41% | 2030 nM
COc1ccccc1C1CCN([C@@H]2CCC3(C2)CN(c2ccnnc2)C3)CC1 [Example 5S, (R)-6-(4-(2-methoxyphenyl)piperidin-1-yl)-2-(pyridazin-4-yl)-2-azaspiro[3.4]octane] | 55% | 129 nM | 45% | 1040 nM
